{"source": "PubChem BioAssay AID1918955", "about": "(Molecular Pharmacology Branch, DTP, NCI, 2023)", "tested_on": "NCI/ADR-RES complex spheroid viability", "assay": "Anticancer human tumor NCI/ADR-RES cell line growth inhibition;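 on all read-outs here: spheroids exposed to compounds for 7 days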;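 on viability, T/C: 100% = DMSO vehicle treated spheroids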", "conditions": "for IC50: curve of first compound; for viability, T/C: stronger effect = lower value", "from_the_text": "Multicellular complex tumor spheroid response to LSD1 Inhibitor Iadademstat in combination with a variety of drugs and investigational agents in selected tumor cell lines\nThe current study was undertaken to assess response to LSD1 inhibitors in combination with standard-of-care drugs and investigational agents in solid tumor complex spheroid models as well as in the K-562 leukemia. Complex spheroids include a stromal component modeled by human endothelial cells (HUVEC) and fibroblasts modeled by human mesenchymal stem cells (MSCs). The concentration ranges selected for each drug and investigational agent were based upon clinically achievable concentrations if the clinical Cmax of the agent was known.\nCompounds. The drugs and investigational agents used in this study are listed on Table 1. All of the agents used, including staurosporine (NSC755774) and gemcitabine (NSC613327), were obtained from the Developmental Therapeutics Program, NCI. FDA-approved anticancer drugs are available from the NCI at http://dtp.nci.nih.gov/branches/dscb/oncology_drugset_explanation.html. Drugs and investigational agents were >95% pure by proton nuclear magnetic resonance (NMR) and liquid chromatography/mass spectrometry (LC/MS). Stock solutions were prepared at 400x in DMSO, stored at -70 degrees C, and diluted in fresh medium prior to their use. The final concentration of DMSO in cell culture wells never exceeded 0.25% (v/v). The FDA-approved anticancer drug set is available from the Developmental Therapeutics Program at https://dtp.cancer.gov/organization/dscb/obtaining/available_plates.htm. All drugs and investigational agents were tested over a range starting from a high concentration at or near the clinical Cmax and decreasing in half-log increments. If the clinical Cmax for an agent had not been determined, the highest concentration tested was 10 microM.\nCell Lines. The patient-derived cancer cell (PDC) lines: 292921-168-R-J2-PDC, K24384-001-R-PDC, and 521955-158-R2-J5-PDC pancreatic carcinomas, 556581-035-R-J1 ovarian carcinoma, 324938-238-R-J1-PDC, 855422-203-R-J1-PDC and 883617-216-R-J1-PDC urothelial bladder carcinomas, 743489-274-T-PDC renal cell carcinoma, 138582-R-J1 Merkel cell tumor, K60290-347-R-J1 and K57222-313-R-J1-PDC glioblastomas, 653999-131-R-J2-PDC, LG0703-F948-PDC, and 349418-098-R-PDC non-small cell lung carcinomas, 885512-296-R-J2-PDC, 171881-019-R-J1-PDC breast carcinomas and 186277-243-T-J2-PDC and 233499-124-R-J2-PDC colon carcinomas were obtained from the NCI Patient-Derived Models Repository (PDMR, https://pdmr.cancer.gov). The established cell lines NCI/ADR-RES (RRID:CVCL_14520 and OVCAR-5 (RRID:CVCL_1628) ovarian carcinomas, 786-O (RRID:CVCL_1051) and A498 (RRID:CVCL_A498) renal cell carcinoma, NCI-H211 (ATCC, cat. CRL-5824; RRID:CVCL_1529), NCI-H196 (ATCC, cat. CRL-5823, RRID:CVCL_1509), SW 1271 (ATCC, cat. CRL-2177, RRID:CVCL_1716) and NCI-H1876 (ATCC, cat. CRL-5902, RRID:CVCL_1503) small cell lung carcinomas, MDA-MB-231 (RRID:CVCL_0062) and MDA-MB-468 (RRID:CVCL_0419)breast carcinomas (10-12). Pooled donor human umbilical vein endothelial cells (HUVEC, Lonza, cat. CC-2519) and human mesenchymal stem cells (hMSC, Lonza, cat. PT-2501) were purchased from Lonza (Walkersville, MD).\nCell Culture. All cells were maintained in an incubator at 37 degrees C and 5% CO2 with 95% humidity. The PDC lines were cultured according to standard operating procedures established by the NCI PDMR (https://pdmr.cancer.gov). Briefly all PDCs were thawed and cultured in Matrigel-coated flasks prepared with a working solution of 1X Ham's F-12 nutrient mix, without supplementation (Invitrogen, Waltham, MA, cat. 11765054), 100 U/mL penicillin-streptomycin (Invitrogen, cat. 15140122), and 2.5% Matrigel (Corning Inc., Corning, NY, cat. 354248) for the first three passages. […]"}
{"smiles": "Nc1ncn(C2CC(O)C(CO)S2)c(=O)n1", "note": "(stereo not given) + NC1CC1c1ccc(-c2cccc(O)c2)cc1", "values": [{"measurement": "IC50", "setting": "second compound 0.1 µM", "value": 7.4, "unit": "nM"}, {"measurement": "IC50", "setting": "second compound 0.316 µM", "value": 7.52, "unit": "nM"}, {"measurement": "IC50", "setting": "second compound 1 µM", "value": 6.82, "unit": "nM"}, {"measurement": "IC50", "setting": "second compound 3.16 µM", "value": 5.54, "unit": "nM"}, {"measurement": "IC50", "setting": "second compound 10 µM", "value": 4.48, "unit": "nM"}, {"measurement": "viability, T/C", "setting": "second compound 0.1 µM, first compound 0.000949 µM", "value": 89.3, "unit": "%"}, {"measurement": "viability, T/C", "setting": "second compound 0.1 µM, first compound 0.003 µM", "value": 66, "unit": "%"}, {"measurement": "viability, T/C", "setting": "second compound 0.1 µM, first compound 0.00949 µM", "value": 44.7, "unit": "%"}, {"measurement": "viability, T/C", "setting": "second compound 0.1 µM, first compound 0.03 µM", "value": 29.6, "unit": "%"}, {"measurement": "viability, T/C", "setting": "second compound 0.1 µM, first compound 0.0949 µM", "value": 11.8, "unit": "%"}, {"measurement": "viability, T/C", "setting": "second compound 0.1 µM, first compound 0.3 µM", "value": 2.46, "unit": "%"}, {"measurement": "viability, T/C", "setting": "second compound 0.316 µM, first compound 0.000949 µM", "value": 91.2, "unit": "%"}, {"measurement": "viability, T/C", "setting": "second compound 0.316 µM, first compound 0.003 µM", "value": 62.5, "unit": "%"}, {"measurement": "viability, T/C", "setting": "second compound 0.316 µM, first compound 0.00949 µM", "value": 47.8, "unit": "%"}, {"measurement": "viability, T/C", "setting": "second compound 0.316 µM, first compound 0.03 µM", "value": 30.6, "unit": "%"}, {"measurement": "viability, T/C", "setting": "second compound 0.316 µM, first compound 0.0949 µM", "value": 9.77, "unit": "%"}, {"measurement": "viability, T/C", "setting": "second compound 0.316 µM, first compound 0.3 µM", "value": 2.75, "unit": "%"}, {"measurement": "viability, T/C", "setting": "second compound 1 µM, first compound 0.000949 µM", "value": 88.4, "unit": "%"}, {"measurement": "viability, T/C", "setting": "second compound 1 µM, first compound 0.003 µM", "value": 68, "unit": "%"}, {"measurement": "viability, T/C", "setting": "second compound 1 µM, first compound 0.00949 µM", "value": 41.2, "unit": "%"}, {"measurement": "viability, T/C", "setting": "second compound 1 µM, first compound 0.03 µM", "value": 25.5, "unit": "%"}, {"measurement": "viability, T/C", "setting": "second compound 1 µM, first compound 0.0949 µM", "value": 9.64, "unit": "%"}, {"measurement": "viability, T/C", "setting": "second compound 1 µM, first compound 0.3 µM", "value": 2.79, "unit": "%"}, {"measurement": "viability, T/C", "setting": "second compound 3.16 µM, first compound 0.000949 µM", "value": 85.4, "unit": "%"}, {"measurement": "viability, T/C", "setting": "second compound 3.16 µM, first compound 0.003 µM", "value": 58.3, "unit": "%"}, {"measurement": "viability, T/C", "setting": "second compound 3.16 µM, first compound 0.00949 µM", "value": 43, "unit": "%"}, {"measurement": "viability, T/C", "setting": "second compound 3.16 µM, first compound 0.03 µM", "value": 24.6, "unit": "%"}, {"measurement": "viability, T/C", "setting": "second compound 3.16 µM, first compound 0.0949 µM", "value": 9.31, "unit": "%"}, {"measurement": "viability, T/C", "setting": "second compound 3.16 µM, first compound 0.3 µM", "value": 2.63, "unit": "%"}, {"measurement": "viability, T/C", "setting": "second compound 10 µM, first compound 0.000949 µM", "value": 77, "unit": "%"}, {"measurement": "viability, T/C", "setting": "second compound 10 µM, first compound 0.003 µM", "value": 54, "unit": "%"}, {"measurement": "viability, T/C", "setting": "second compound 10 µM, first compound 0.00949 µM", "value": 38.6, "unit": "%"}, {"measurement": "viability, T/C", "setting": "second compound 10 µM, first compound 0.03 µM", "value": 26.2, "unit": "%"}, {"measurement": "viability, T/C", "setting": "second compound 10 µM, first compound 0.0949 µM", "value": 11.8, "unit": "%"}, {"measurement": "viability, T/C", "setting": "second compound 10 µM, first compound 0.3 µM", "value": 3.24, "unit": "%"}]}
